Results reported in US20150265669A1, “METHODS AND COMPOSITIONS FOR INHIBITING CANCER CELL GROWTH” (priority 2014, published 2015).
Converted amounts (≈) assume the structure as drawn.

Tests used:
[1] = test system: Spleen tissue of leukaemic BALB/c mice; assay: TUNEL assay of spleen tissue; format: in vivo; conditions: Morinda at low and high doses
[2] = test system: tumor tissues; assay: Mouse apoptosis RT-PCR-Array on tumor tissues; format: in vivo, mice
Experimental: (§1) Male BALB/C mice (6 weeks old, weighing 19-20 g) were purchased from Faculty of Veterinary Medicine, University Putra Malaysia. Mice were housed in laminar air-flow cabinets under pathogen-free conditions with a 12-h light/12-h dark schedule and fed with autoclaved standard chow and water ad libitum. A549 cells (2×10^7) resuspended in 100 μL PBS were injected subcutaneously into the backs of mice. When tumor size reached approximately 100 mm^3, after 14 days of implantation, mice were randomly assigned to the following experimental groups and administered daily by oral gavage for 21 days: (a) saline; (b) erlotinib (50 mg/kg); (c) 150 mg/kg and (d) 300 mg/kg of Morinda spp. leaves, Clinacanthus spp. leaves. Mice were sacrificed via intraperitoneal injection of ketamine HCl (100 mg/kg) and xylazine (10 mg/kg). Tumor was collected. Some were kept in liquid nitrogen for gene expression, while others were fixed in 10% formalin and embedded in paraffin for hematoxylin and eosin (H&E) and immunohistochemical (IHC) examination. IHC kits (ChemMate™ DAKO EnVision™ Detection Kit, Peroxidase/DAB, Rabbit/Mouse) were purchased from Dako, Denmark. The primary antibody was anti-EGFR antibody ab15669 (Abeam; Cambridge, United Kingdom). This protocol was approved by the Animal Care and Use Committee of University Putra Malaysia (UPM/IACUC/AUP-R016/2013).
RNA was isolated using Trizol (Invitrogen, Carlsbad, Calif.). Custom RT^2 Profiler PCR Array (CAPM11988), RT^2 SYBR Green qPCR Mastermix, RT^2 First Strand Kit and RNase-Free DNase Set were purchased from SuperArray Bioscience Corporation (Frederick, Md.). Quantitative RT-PCR array for differentially expressed genes of interest was performed utilizing RT^2 Profiler PCR Array Data Analysis version 3.5 (SABiosciences; Fredrick, Md., USA), which normalized to Hsp90ab1 (NM_008302) and Gapdh (NM_008084). RT-PCR data is represented as the average relative mRNA gene expression of each experimental group (n=3).

[3] = test system: A549 cells; assay: MTT cytotoxicity assay on A549 cells; format: cell-based; conditions: Homo sapiens, after 72 hours, read-out: IC50 concentrations
Experimental: The cytoxicity properties of the extract were determined by using MTT assay. MTT dye is a water-soluble yellow dye that is decreased in viable cells to MTT-formazan (3-[4,5-dimethylthiazol-2-yl]-3,5-diphenylformazan) that is an insoluble purple colored product, by the succinate dehydrogenase mitochondrial enzyme. The cells were seeded in 96-well Microplates at a density of 2×10^5 cells/ml. After 24 hours incubation, the cells were treated with various concentrations of Morinda leaf, or Clinacanthus spp. Leaves and root extract ([…]) for 24, 48 and 72 h. After 72 hours of incubation, 20 μL of MTT solution (5 mg/ml in PBS) was added in each well and the plates incubated for 4 hours. Then, after removing the media the formazan crystals were dissolved with 100 μL DMSO. Finally the absorbance was determined at 570 and 630 nm in a microplate reader (ECAN, Sunrise™, Männedorf, Switzerland). Cell viability was calculated as the percentage of absorbent compared to control. The 50% inhibitory concentration (IC50) value, defined as the amount of Morinda citrifolia leaf, or Clinacanthus spp. Leaves and root extract that inhibits 50% of cell growth, was calculated from the concentration-response curves. All experiments were carried out in triplicate. Three independent experiments performed in triplicate were used for these calculations. […]

[4] = test system: A549 cells (lung cancer); assay: Flow cytometric cell cycle phase distribution; format: cell-based, human; conditions: A549, IC50 concentration; for cell cycle arrest: 12-72 hours
Experimental: The Wehi-3B (blood cancer) or A549 (lung cancer) cells (2×10^5 cells/mL) were treated with IC50 concentration of Morinda spp. leaves, or Clinacanthus spp. leaves with or without Zingiber extract and compared with erlotinib. After 12, 24, 48, and 72 hours of incubation, the cells were trypsinized, washed, fixed in 70% ethanol, stained with 1 mg/mL PI and analysed by flow cytometry (BD FACS Canto II, USA).
For flow cytometry analysis fixation of cell population must be performed to keep the integrity and the cell pellets were fixed by adding of 500 μl of 70% chilled ethanol and kept at −20° c. for 5-7 days. Then, the cells were centrifuged at 1000 rpm for 10 minutes and the ethanol was removed. The cells were washed with washing solution containing PBS, EDTA, bovine serum albumin and sodium azide twice, and the pellet cells were resuspended to staining buffer containing 1 ml PBS and 3 μl PI (10 mg/ml) and 10 μl RNase A (50 mg/ml) for 30 minutes on ice dark place. RNase was added in order to permit PI to bind exactly to DNA. The DNA content of cells was analysed with a BD flow cytometer, and the data analysis was performed by using summit V4.3 software.

[5] = test system: A549 cells (lung cancer); assay: AO/PI double staining fluorescence microscopy; format: cell-based, human; conditions: 200x
Experimental: AO/PI double staining was carried out to visualize any morphological changes in the cells upon treatment and also to semi-quantitated viable, apoptotic and necrotic cells, as shown in FIG. 3. […] After 24 hours treatment, blebbing of the cell membrane and dense green nucleus, which indicated nuclear chromatin condensation were noticeable (FIGS. 3(b) and 3(e)). Both early apoptosis features (blebbing and chromatin condensation) and late phases of apoptosis, which specify presence of intense reddish-orange colour due to acridine orange binding to denatured DNA, were observed more apparent at 48 hours of treatment (FIGS. 3(c) and 3(f)) and prominent at 72 hours (FIGS. 3(d) and 3(g)).

[6] = test system: A549 (lung cancer); assay: Colourimetric assay of caspase 3, 8 and 9 in A549; format: cell-based, human; conditions: A549, treated vs untreated cells, 24-72 hours
Experimental: The colorimetric assay of caspase 3 was performed using fluorometric and colorimetric assay kit (biotium kit). Wehi-3B (blood cancer) or A549 (lung cancer) cells at concentration of 1×10^6 cells/ml were cultured in RPMI 1640 (ATCC, USA) medium supplemented with 10% fetal bovin serum and were seeded into […] culture flask. […] Untreated cells acted as control. The cells were lysed with cold lysis buffer and incubated for 10 minutes on ice. Then, cell lysate was spun down at 10000 rpm for 5 minutes. The supernatant was transferred to new wells and 50 μl assay buffer was added to each samples. Then, 5 μl of enzyme substrate (caspase-3 and 8 substrate) was added to each sample and incubated at 37° c. for 30-60 minutes in a dark place. […]. The samples were read at 495 nm in a microplate reader. Finally, the results were shown as optical density (495 nm, mean SD).

[7] = test system: A549 cells (lung cancer); assay: Morphological changes under normal phase contrast inverted microscope; format: cell-based, human; conditions: 400x
Experimental: Wehi-3B (blood cancer) or A549 (lung cancer) cells at concentration of 1×10^6 cells/ml were cultured in RPMI 1640 (ATCC, USA) medium supplemented with 10% fetal bovin serum and were seeded into […] culture flask. […] The morphological changes of the cells were observed under normal inverted microscope. Untreated cells were used as negative control. Some morphological appearances such as plasma membrane blebbing, rounding up the cells, cell detachment, cell shrinkage and formation of vacuole in the cell were observed.
Similarly Human lung fibroblast (MRC5), human lung adenocarcinoma (A549) cell lines, Essential Modified Eagle's Medium (EMEM) and Kaighn's Modification of Ham's F-12 (F-12K) medium were obtained from American Type Culture Collection (ATCC). MRC5 and A549 cells were cultured in EMEM and F-12K medium, respectively. Both media supplemented with 10% fetal bovine serum (FBS) and 1% of 100 μg/mL penicillin and streptomycin. Cells were grown in a humidified incubator at 37° C. with 5% CO2.

[8] = test system: A549 cells injected subcutaneously; assay: In vivo tumor xenograft model; set-up: species or system mice; conditions: erlotinib 50 mg/kg, daily oral gavage 21 days
Experimental: as §1, with “The primary antibody was anti-EGFR antibody ab15669 (Abeam; Cambridge, United Kingdom). This protocol was approved by the Animal Care and Use Committee of University Putra Malaysia (UPM/IACUC/AUP-R016/2013).” left out
Data was expressed as mean±standard deviation (mean±SD) of at least three independent experiments; significant differences (p<0.05) using one-way analysis of variance (ANOVA) and Duncan test using statistical analysis IBM SPSS Statistics 21 software.

[9] = Erlotinib 50 mg/kg, vs untreated

CC1=C(/C=C/C(C)=C/C=C/C(C)=C/C(=O)O)C(C)(C)CCC1 [ATRA]
apoptosis in spleen tissue (TUNEL) [1]: significant (P<0.05) apoptosis

C#Cc1cccc(Nc2ncnc3cc(OCCOC)c(OCCOC)cc23)c1 [erlotinib]
Fold Change Bcl2 [2, 9]: −3.57 fold | Fold Change Birc5 [2, 9]: −2.40 fold | Fold Change Jak2 [2, 9]: −1.26 fold | Fold Change Stat3 [2, 9]: 1.06 fold | Fold Change Stat5a [2, 9]: 1.42 fold | Fold Change Trp53 [2, 9]: −1.10 fold | survivin and Bcl-2 expression ([2]; erlotinib positive control): down-regulation | IC50 [3]: 2.83 µg/mL (≈ 7.19 µM) | S and G2/M phase cells [4]: concomitant decrease | cell cycle arrest [4]: induced G0/G1 phase cell cycle arrested | cell cycle arrest ([4]; listed as erlotnib): induced G0/G1 arrest | AO/PI double-stained morphology ([5]; after 24 h): cells exhibit blebbing of the cell membrane and bright green nucleus showing condensation of chromatin | AO/PI double-stained morphology ([5]; after 48 h): late apoptosis features were seen | AO/PI double-stained morphology ([5]; after 72 hours): more late apoptosis | activity of caspase 9 [6]: remained unchanged | activity of caspase-3 [6]: significantly (P<0.05) increased | activity of caspase-8 [6]: significantly (P<0.05) increased | morphological changes of A549 cells ([7]; after 24 h): most of the cells exhibit normal morphology while some cells show cell shrinkage | morphological changes of A549 cells ([7]; after 48 h): clear apoptogenic morphology such as blebbing and cell shrinkage observed | morphological changes of A549 cells ([7]; after 72 h): most of the cells were detached with obvious cell shrinkage, and blebbing of the cell membrane | tumor size [8]: 36.26±37.00 mm^3
